Literature values as cited in patent publication US20070020177A1, “Radiometal complex compositions” (priority 2003, published 2007).

## ^99mTc-TRODAT-1
Fan et al
  stable at room temperature: 24 h
Minimum of 10 μg tropane conjugate in the kit, autoclave heating 30 minutes, Choi et al
  radiochemical purity reached by kit: greater than 90%
